The target in assay [1] is Serine/threonine-protein kinase 25 (Homo sapiens) (UniProt O00506). The experiment in a line: Selectivity interaction (Kinase panel (Z-LYTE Assay)) EUB0001632a STK25. Conditions: at 10 µM.
Assay [2] has as its target AP2-associated protein kinase 1 (Homo sapiens, UniProt Q2M2I8). The assay is described as follows: Selectivity interaction (KinomeScan (DiscoverX)) EUB0000595a AAK1. The note with it: at 10 µM.
The target in assay [3] is Cyclin-dependent kinase-like 3 (Homo sapiens) (UniProt Q8IVW4). The experiment in a line: Selectivity interaction (KinomeScan (DiscoverX)) EUB0001619a CDKL3. Conditions: at 1 µM.
The target of assay [4] is Receptor tyrosine-protein kinase erbB-4 (Homo sapiens, UniProt Q15303). The assay is described as follows: Selectivity interaction (KinomeScan (DiscoverX)) EUB0001619a ERBB4. Conditions: at 1 µM.
Assay [5] concerns the target Casein kinase I isoform gamma-2 (Homo sapiens) (UniProt P78368). The assay is described as follows: Selectivity interaction (ActivX KiNativ screen (kinase selectivity in THP-1 cell lysates)) EUB0000639a CSNK1G2. The assay is classed as subcellular. Conditions: lysate.
Assay [6] addresses T1, Serine/threonine-protein kinase ULK3 (Homo sapiens) (UniProt Q6PHR2).
T1 sequence (whole entry): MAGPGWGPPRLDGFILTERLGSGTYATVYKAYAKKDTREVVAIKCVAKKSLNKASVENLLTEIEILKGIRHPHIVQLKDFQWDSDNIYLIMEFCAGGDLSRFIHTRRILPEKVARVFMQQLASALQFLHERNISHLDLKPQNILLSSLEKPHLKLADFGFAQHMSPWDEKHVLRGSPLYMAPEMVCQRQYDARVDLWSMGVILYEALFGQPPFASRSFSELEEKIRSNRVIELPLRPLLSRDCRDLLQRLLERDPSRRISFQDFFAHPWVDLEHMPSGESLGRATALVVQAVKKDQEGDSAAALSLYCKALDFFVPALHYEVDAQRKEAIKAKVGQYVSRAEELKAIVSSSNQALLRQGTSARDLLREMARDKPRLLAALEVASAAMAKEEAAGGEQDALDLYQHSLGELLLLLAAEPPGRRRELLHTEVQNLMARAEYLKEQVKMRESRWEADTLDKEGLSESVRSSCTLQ
The experiment in a line: Selectivity interaction (Kinase panel (DSF assay)) EUB0001559a ULK3. Background: Differential scanning fluorimetry follows unfolding on heating by fluorescence.

For assay [7], the target named is Phosphatidylinositol 4-phosphate 5-kinase type-1 alpha (Homo sapiens) (UniProt Q99755). The assay is described as follows: Selectivity interaction (ProQinase) EUB0000171b PIP5K1A.
In assay [8] the target is Fibroblast growth factor receptor 1 (Homo sapiens, UniProt P11362). The experiment in a line: Selectivity interaction (KinomeScan (DiscoverX)) EUB0001049a FGFR1. The note with it: at 1 µM.
For assay [9], the target named is T2, Serine/threonine-protein kinase TNNI3K (Homo sapiens) (UniProt Q59H18).
T2 sequence (whole entry): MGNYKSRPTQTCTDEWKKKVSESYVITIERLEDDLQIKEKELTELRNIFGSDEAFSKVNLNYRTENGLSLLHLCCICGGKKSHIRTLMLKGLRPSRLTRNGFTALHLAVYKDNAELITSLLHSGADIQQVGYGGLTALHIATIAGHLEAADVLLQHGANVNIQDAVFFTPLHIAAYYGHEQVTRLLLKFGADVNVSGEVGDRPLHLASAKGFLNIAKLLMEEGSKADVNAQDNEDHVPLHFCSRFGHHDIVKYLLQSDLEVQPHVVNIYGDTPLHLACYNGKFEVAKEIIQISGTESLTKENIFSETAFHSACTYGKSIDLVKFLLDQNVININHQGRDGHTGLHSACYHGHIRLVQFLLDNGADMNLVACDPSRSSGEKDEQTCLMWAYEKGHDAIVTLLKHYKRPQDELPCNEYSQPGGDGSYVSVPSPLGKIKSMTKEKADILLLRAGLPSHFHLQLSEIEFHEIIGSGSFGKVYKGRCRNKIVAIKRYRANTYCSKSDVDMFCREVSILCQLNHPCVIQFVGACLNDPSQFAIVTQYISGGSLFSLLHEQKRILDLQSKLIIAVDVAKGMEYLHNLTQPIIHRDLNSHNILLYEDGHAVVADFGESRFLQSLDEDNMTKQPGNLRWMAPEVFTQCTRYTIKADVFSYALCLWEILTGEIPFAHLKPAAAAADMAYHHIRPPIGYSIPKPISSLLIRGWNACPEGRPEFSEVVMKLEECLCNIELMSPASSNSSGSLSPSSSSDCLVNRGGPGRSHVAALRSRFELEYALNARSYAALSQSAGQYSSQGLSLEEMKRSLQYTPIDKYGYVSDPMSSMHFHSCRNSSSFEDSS
The experiment in a line: Selectivity interaction (KinomeScan (DiscoverX)) EUB0001049a TNNI3K. The note with it: at 1 µM.

In assay [10] the target is MAP kinase-interacting serine/threonine-protein kinase 2 (Homo sapiens, UniProt Q9HBH9). The assay is described as follows: Selectivity interaction (Kinase panel (33PanQinase(R) Activity Assay)) EUB0000877a MKNK2.
Assay [11] concerns Epidermal growth factor receptor (Homo sapiens), P00533 [UNDEFINED MUTATION]. The assay is described as follows: Selectivity interaction (KinomeScan (DiscoverX)) EUB0000655a EGFR. Conditions: at 10 µM.
Assay [12] has as its target Histone-lysine N-methyltransferase ASH1L (Homo sapiens) (UniProt Q9NR48). The assay is described as follows: Selectivity interaction (Transferase panel (protein, RNA, and DNA methyltransferases. and EP300 (acetyltransferase))) EUB0000270b ASH1L.
The target of assay [13] is Sodium-dependent serotonin transporter (Homo sapiens, UniProt P31645). The assay is described as follows: Selectivity interaction (Panel of non-epigenetic targets (kinases, GPCRs, ion channels, and transporters, Eurofins) ) EUB0000271b SLC6A4. Conditions: at 1 µM.
Assay [14] deals with Dual specificity mitogen-activated protein kinase kinase 1 (Homo sapiens, UniProt Q02750). The experiment in a line: Selectivity interaction (Kinase panel (DSF assay)) EUB0001558a MAP2K1.
The target of assay [15] is Serine/threonine-protein kinase PAK 6 (Homo sapiens) (UniProt Q9NQU5). The experiment in a line: Selectivity interaction (KinomeScan (DiscoverX)) EUB0000229b PAK6. The note with it: at 10 µM.

13 compounds from ChEMBL document CHEMBL5465560, “Selectivity Literature for EUbOPEN Chemogenomic Library” (2024) can be followed below.

The IC50 is the concentration that gives 50% inhibition. A higher IC50 goes with a need for much substance.

SMILES strings stand for the structures.

Sequence of Casein kinase I isoform gamma-2 (Homo sapiens) (P78368 whole entry, looked up, canonical isoform): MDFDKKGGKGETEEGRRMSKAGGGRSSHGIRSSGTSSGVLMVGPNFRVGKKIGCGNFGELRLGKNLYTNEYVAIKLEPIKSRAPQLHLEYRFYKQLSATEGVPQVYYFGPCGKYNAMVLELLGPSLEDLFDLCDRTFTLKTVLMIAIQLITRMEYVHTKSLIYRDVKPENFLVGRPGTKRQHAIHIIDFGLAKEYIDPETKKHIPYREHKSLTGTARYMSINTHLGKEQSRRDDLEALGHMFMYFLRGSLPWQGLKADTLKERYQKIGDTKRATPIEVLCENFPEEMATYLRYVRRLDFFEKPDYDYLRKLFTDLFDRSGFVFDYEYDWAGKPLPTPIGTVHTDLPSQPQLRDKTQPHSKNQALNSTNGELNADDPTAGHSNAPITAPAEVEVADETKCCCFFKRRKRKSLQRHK
Sequence of Phosphatidylinositol 4-phosphate 5-kinase type-1 alpha (Homo sapiens) (Q99755 whole entry): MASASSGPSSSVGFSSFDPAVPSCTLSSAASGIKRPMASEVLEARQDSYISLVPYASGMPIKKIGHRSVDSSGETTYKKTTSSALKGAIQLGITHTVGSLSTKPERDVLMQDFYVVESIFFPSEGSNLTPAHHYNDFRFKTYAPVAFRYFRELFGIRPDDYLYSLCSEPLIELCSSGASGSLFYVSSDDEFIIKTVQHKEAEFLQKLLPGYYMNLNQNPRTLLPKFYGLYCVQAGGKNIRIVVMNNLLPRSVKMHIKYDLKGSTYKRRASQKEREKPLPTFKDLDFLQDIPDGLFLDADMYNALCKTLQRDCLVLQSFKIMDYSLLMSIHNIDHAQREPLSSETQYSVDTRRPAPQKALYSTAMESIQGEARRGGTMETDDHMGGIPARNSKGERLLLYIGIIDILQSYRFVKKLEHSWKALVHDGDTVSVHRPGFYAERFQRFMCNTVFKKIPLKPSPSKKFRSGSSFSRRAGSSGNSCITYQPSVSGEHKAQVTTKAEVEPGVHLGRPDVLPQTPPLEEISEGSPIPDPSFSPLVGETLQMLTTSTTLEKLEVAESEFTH
Sequence of Receptor tyrosine-protein kinase erbB-4 (Q15303 whole entry, canonical isoform): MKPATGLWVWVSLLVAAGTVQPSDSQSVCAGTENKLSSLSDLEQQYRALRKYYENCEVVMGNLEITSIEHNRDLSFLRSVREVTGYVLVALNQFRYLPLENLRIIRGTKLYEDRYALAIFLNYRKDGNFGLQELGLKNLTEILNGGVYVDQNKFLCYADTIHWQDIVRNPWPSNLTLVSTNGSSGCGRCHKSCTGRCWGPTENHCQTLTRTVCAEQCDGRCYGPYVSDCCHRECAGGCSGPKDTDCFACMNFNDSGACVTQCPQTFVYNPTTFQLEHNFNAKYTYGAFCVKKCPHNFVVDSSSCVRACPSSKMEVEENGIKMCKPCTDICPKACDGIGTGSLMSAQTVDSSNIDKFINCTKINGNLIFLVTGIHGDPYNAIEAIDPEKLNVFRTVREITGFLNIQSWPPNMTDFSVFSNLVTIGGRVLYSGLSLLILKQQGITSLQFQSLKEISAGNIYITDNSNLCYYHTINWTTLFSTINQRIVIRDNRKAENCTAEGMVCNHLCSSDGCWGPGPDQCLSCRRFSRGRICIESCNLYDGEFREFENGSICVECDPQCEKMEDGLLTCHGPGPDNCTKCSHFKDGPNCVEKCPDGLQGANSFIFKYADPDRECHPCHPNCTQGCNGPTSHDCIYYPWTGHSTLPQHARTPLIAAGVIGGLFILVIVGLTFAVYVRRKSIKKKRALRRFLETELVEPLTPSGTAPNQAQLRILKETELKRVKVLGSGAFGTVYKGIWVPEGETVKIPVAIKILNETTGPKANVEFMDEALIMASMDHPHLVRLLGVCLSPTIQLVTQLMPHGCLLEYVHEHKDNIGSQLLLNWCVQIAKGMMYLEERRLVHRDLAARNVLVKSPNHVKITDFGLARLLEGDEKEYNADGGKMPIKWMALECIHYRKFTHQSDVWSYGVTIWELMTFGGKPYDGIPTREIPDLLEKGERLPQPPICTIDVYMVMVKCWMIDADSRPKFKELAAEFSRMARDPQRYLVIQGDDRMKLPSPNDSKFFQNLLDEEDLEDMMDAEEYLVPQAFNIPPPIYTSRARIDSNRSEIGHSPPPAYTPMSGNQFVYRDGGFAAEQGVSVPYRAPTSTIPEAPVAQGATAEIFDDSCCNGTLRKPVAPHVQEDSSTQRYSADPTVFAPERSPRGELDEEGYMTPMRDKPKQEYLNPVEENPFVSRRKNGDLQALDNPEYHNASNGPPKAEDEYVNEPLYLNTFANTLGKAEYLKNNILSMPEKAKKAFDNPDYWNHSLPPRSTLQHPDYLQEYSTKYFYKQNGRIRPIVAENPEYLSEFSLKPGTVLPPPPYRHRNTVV
Sequence of Dual specificity mitogen-activated protein kinase kinase 1 (Q02750 whole entry): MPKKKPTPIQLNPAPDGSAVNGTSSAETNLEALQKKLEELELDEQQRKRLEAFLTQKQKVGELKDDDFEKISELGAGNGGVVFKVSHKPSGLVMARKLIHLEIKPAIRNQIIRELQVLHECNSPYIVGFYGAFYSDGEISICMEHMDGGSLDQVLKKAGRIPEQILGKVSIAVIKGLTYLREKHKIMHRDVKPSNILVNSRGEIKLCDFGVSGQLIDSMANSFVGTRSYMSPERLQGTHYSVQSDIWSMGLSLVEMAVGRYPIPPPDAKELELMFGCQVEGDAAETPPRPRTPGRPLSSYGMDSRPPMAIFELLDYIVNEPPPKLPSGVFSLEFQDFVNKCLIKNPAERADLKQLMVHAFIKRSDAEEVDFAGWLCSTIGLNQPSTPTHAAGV
Sequence of Sodium-dependent serotonin transporter (P31645 whole entry, looked up): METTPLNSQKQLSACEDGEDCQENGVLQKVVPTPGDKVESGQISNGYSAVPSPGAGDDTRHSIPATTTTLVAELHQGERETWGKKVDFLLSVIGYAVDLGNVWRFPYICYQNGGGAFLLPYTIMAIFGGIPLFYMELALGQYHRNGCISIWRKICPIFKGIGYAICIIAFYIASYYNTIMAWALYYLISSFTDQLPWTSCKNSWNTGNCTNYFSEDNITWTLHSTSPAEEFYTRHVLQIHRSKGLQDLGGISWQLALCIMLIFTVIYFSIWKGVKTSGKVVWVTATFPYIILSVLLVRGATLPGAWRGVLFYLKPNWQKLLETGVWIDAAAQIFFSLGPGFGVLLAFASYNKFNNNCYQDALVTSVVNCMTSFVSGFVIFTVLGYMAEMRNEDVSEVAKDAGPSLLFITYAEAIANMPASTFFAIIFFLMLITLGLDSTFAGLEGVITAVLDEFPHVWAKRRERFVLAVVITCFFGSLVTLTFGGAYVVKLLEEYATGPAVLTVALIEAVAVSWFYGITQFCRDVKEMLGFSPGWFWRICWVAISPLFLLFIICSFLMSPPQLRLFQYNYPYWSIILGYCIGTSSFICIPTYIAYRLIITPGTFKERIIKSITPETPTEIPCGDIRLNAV
Sequence of MAP kinase-interacting serine/threonine-protein kinase 2 (Q9HBH9 whole entry): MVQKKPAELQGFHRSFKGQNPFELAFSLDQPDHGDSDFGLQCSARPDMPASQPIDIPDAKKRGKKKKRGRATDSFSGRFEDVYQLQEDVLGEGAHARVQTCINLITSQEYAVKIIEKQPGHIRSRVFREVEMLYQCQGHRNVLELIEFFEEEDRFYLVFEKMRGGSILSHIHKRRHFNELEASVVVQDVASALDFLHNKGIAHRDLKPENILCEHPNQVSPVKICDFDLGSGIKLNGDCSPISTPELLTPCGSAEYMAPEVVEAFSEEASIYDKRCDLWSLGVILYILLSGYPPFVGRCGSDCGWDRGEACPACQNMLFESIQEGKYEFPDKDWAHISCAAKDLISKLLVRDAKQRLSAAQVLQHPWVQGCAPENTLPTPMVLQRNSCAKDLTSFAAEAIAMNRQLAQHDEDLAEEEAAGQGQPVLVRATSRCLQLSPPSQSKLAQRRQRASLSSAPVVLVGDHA
Sequence of Cyclin-dependent kinase-like 3 (Homo sapiens) (Q8IVW4 whole entry, looked up): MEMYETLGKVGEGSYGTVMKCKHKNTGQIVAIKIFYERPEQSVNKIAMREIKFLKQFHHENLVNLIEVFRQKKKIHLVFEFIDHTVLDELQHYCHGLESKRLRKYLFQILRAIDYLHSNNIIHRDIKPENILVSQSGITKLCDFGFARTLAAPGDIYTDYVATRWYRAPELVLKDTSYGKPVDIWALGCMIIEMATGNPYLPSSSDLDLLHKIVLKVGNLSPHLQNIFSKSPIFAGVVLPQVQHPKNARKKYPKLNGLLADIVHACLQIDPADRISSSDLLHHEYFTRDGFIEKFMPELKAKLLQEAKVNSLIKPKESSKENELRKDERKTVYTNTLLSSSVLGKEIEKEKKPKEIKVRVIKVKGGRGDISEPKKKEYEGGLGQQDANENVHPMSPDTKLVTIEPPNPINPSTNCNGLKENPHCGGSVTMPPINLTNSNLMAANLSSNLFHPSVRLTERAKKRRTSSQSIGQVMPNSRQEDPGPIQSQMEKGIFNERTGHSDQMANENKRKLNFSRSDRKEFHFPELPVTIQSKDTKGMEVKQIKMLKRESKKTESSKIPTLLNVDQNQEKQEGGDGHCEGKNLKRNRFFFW
Sequence of Serine/threonine-protein kinase PAK 6 (Homo sapiens) (Q9NQU5 whole entry, looked up): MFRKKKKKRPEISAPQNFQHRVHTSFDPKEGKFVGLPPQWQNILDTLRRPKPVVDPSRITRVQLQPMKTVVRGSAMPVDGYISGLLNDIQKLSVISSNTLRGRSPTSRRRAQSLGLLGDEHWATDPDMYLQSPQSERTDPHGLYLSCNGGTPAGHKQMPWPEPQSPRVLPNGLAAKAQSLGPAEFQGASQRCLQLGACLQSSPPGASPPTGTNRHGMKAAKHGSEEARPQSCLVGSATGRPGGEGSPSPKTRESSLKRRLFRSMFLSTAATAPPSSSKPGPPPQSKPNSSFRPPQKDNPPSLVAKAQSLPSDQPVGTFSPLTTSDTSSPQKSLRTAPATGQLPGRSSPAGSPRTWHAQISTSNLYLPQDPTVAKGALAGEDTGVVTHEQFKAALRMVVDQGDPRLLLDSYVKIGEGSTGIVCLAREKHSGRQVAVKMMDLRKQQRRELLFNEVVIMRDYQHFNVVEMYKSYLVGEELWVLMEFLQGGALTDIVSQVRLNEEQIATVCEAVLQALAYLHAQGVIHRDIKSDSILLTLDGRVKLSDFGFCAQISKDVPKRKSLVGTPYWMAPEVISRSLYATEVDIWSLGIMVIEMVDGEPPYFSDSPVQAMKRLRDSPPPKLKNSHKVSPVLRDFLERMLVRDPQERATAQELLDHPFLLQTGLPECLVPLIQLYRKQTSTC

As to `Cn1cc(-n2cnc3c(NCc4nc5cc(Cl)c(Cl)cc5[nH]4)nc(N4CCOCC4)nc32)cn1`, the % of control in assay [1] was 17.9%.
`COCC(=O)NC/C=C/c1ccc2ncnc(Nc3ccc(Oc4ccc(C)nc4)c(C)c3)c2c1` [CP-724714]: the % of control in [2] turned out to be 100%.
Consider `N#Cc1cccc(-c2c[nH]c3ncnc(N4CCOCC4)c23)c1`, for which the % of control in assay [3] and in [4] was 100% each time.
On to `CC[C@@H]1[C@H](F)C(=O)N[C@@H]1COc1nccc2cc(C(N)=O)c(OC)cc12` [ZIMLOVISERTIB], for which the % of inhibition in assay [5] (at 0.01 µM) came out at 4.3%; in assay [5] (at 0.04 µM) it was 27.3%; in assay [5] (at 0.2 µM), 67%; in assay [5] (at 1 µM) it was 91%; in [5] (at 5 µM), 96.9%.
As to `CN(C(=O)c1cnn2cccnc12)c1cc2c(cc1N1CCOCC1)C(=O)N(C[C@@H](F)C(C)(C)O)C2`, in [6], the dTM is -0.5 K.
Take `C=CC(=O)Nc1cccc(C(=O)Nc2ccc(Nc3cc(-c4[nH]c(SC)nc4C)ccn3)cc2)c1`: the % of control in assay [7] (at 1 µM) was 102%; in assay [7] (at 5 µM), 44%.
In the case of `COc1cc(Nc2nc(C)cc(-c3cnn4nc(OC)ccc34)n2)cc(C(F)(F)F)c1`, the % of control came out at 98% in assay [8] and 100% in assay [9].
As for `CCC(=O)N1CC[C@H](Nc2ncnc3c2CN(c2cnc(OC)c(C(F)(F)F)c2)CC3)C1` [LENIOLISIB], the IC50 in assay [10] is > 10 µM.
In assay [11], `CN(C)CCOc1ccc(-c2nc(-c3ccncc3)c(-c3ccc4c(c3)CC/C4=N\O)[nH]2)cc1` registered a % of control of 67%.
For the compound `Cc1cc(CN)cc(C)c1-c1ncn(C)c1-c1cncn1C`, the % activity was > 90% in assay [12] (at 1 µM) and > 80% in assay [12] (at 10 µM).
Consider `Cc1cc(C)cc([C@@H]2c3cc(C)ccc3NC(=O)CN2C(=O)c2ccc(Br)s2)c1`, for which the % of inhibition in [13] is -17%.
For the compound `CC(C)(O)[C@H](F)CN1Cc2cc(NC(=O)c3cnn4cccnc34)c(N3CCOCC3)cc2C1=O`, the dTM in [14] is 1.3 K.
The compound `COc1cc(N(C)c2ccnc3ccc(C(F)(F)F)cc23)cc(OC)c1OC` displayed a % binding in assay [15] of 91%.
